SMILES strings stand for the structures.

Consider two molecules from publication PMC8398081, “Antioxidant Activity, α-Glucosidase Inhibition and UHPLC–ESI–MS/MS Profile of Shmar (Arbutus pavarii Pamp)” (Plants, 2021).

The nature of assay [1]: DPPH free radical scavenging assay. As to conditions: 30 min in dark, 517 nm; mean ± SD, n=3. The procedure:
The DPPH assay was conducted in accordance with Lee et al. method. Initially, 100 µL of DPPH (5.9 mg in 100 mL ethanol) was mixed with 50 µL of the extracts or fractions. The mixtures were then kept in dark for 30 min at room temperature. The absorbance was measured using microplate reader at 517 nm. Quercetin was used as a positive control in the assay. The scavenging activity was calculated using the equation Scavenging Activity (%) = [(Ac – As)/Ac] × 100%, where (Ac) is the absorbance of the blank reagent while (As) is the absorbance of the tested samples. The analysis was performed in triplicates and the results were described as IC50 value.
(DPPH is a stable violet radical that fades when it is reduced.)

The nature of assay [2]: Ferric reducing antioxidant power (FRAP) assay. As to conditions: 37 °C, 30 min, 593 nm; FeSO4 standard curve; mean ± SD, n=3. As to the method:
The FRAP of extracts and fractions were examined according to Kadum et al. method with slight modifications. […] A volume of 10 μL of methanol extract or fractions was transferred into 96-well microplates, followed by addition of 200 μL FRAP reagent and incubation at 37 °C for 30 min. The absorbance was checked through microplate reader (SPECTRAmax PLUS) at 593 nm. The absorbances of ferrous sulfate solution (FeSO4·7H2O), with a range of concentrations between 0.1 and 1 mM were used for plotting a calibration curve. The ascorbic acid was used as positive control and FRAP was presented as mM Fe (II)/g extract for extracts and mM Fe (II)/g fraction for fractions.

`O=c1c(O)c(-c2ccc(O)c(O)c2)oc2cc(O)cc(O)c12` [Quercetin]: the “DPPH IC50” value in assay [1] is reported as 8.6 ± 0.70 µg/mL.

Consider `O=C1O[C@H]([C@@H](O)CO)C(O)=C1O` [Ascorbic acid], for which the FRAP in assay [2] is listed as 180.64 ± 0.01 mmol Fe (II)/g Extract.
